Measurements as given in patent EP2241565A1, “Aurora kinase inhibitors compounds” (Universität Leipzig, priority 2009, dated 2010).

How the values were obtained:
[1] = system: histone H3 phosphorylation on Ser 10; assay: Western Blot analysis of histone H3 phosphorylation in mitotic cells; format: cell-based, human; conditions: mitotic HeLa cells synchronized with nocodazole, treated 20 h, any of the concentrations tested
Procedure: For Western Blot analysis of HH3 phosphorylation levels in mitosis HeLa cells were arrested with 2 mM thymidine for 18 h, released into fresh medium for 6 h, and blocked with 2 µM nocodazole for 16 h. DMSO or the different compounds were added 1 h after thymidine release. Mitotic cells were shaken off and lysed in 50 mM Tris pH 6,8- 2% SDS. Samples were sonicated and boiled. 30 µg protein extract (as determined by Bradford assay, Bio-Rad protein assay) was loaded on SDS-PAGE, transferred to a nitrocellulose membrane and blotted with anti-phospho HH3 (Upstate), anti-Aurora A and anti-tubulin antibodies (Sigma, DM1A).

[2] = system: HeLa cells; assay: Fixed cell analysis of mitotic phenotypes (fluorescence / immunofluorescence); format: cell-based, human; conditions: 2 µM, 24 h
Procedure: For fixed cell analysis, HeLa or H2B-GFP/mRFP-αTubulin HeLa cells were grown on glass coverslips and treated as described above. Cells were fixed in ice cold methanol and mounted in Mowiol. Alternatively, non fluorescent HeLa were treated and subjected to immunofluorescence with anti-tubulin antibodies (Sigma, DM1A) and Hoechst to stain the DNA. Cells were observed on a Leica DM16000B microscope with the HCX PL APO CS 63x 1.4 objective. Images were taken with a Leica DFC 350FX camera, controlled by Leica Application Suit (LAS-AF 6000) software and processed with Adobe Photoshop.
To get a better idea about the defects causing cell division failure in cells treated with (C), we examined fixed cells to better visualize the chromosomes and the microtubules. […] In parallel, standard HeLa cells were treated in the same way. The cells were fixed and processed for immunofluorescence with anti-tubulin antibodies to visualize the microtubules and Hoechst to stain the DNA.

[3] = system: H2B-GFP/mRFP-αTubulin HeLa cells; assay: Time-lapse video microscopy of live cells; format: cell-based, human; conditions: 2 µM
Procedure: Upon treatment, living cells were added to a humidified chamber at 37 °C with 5% CO2 attached to a Carl Zeiss microscope (SN:3834000366) equipped with a Hamamatsu EM-CCD digital camera, controlled by AxioVision 4.6 software. Cells were imaged every 3 or 4.5 min (depending on the number of fields filmed) for over 16 h-24 h. Images were taken with the AxioCam MRm 426205 objective and processed using AxioVision software.
The increase in the proportion of cells with more than 2n DNA content could be due to several causes: several cycles of DNA replication or cytokinesis errors as shown for cells treated with other Aurora inhibitors. To determine the primary cause for the phenotype produced by (C) and examine whether (A) may interfere with mitosis, we examined live cells by time-lapse video microscopy. To visualize DNA and microtubules we used a HeLa stable cell line expressing H2B-GFP and mRFP-αTubulin. […] The resulting time-lapse images were used to determine the following parameters: (1) the percentage of cell death among non dividing cells (Figure 4A), (2) the percentage of cells entering mitosis (Figure 4B), (3) the outcome of mitosis: normal division (cell division), return to interphase without chromatin segregation and without dividing (no division), cytokinesis failure (division errors), cell death without resolving mitosis (cell death) (Figure 4C), and (4) the length of time spent in mitosis (TIM), defined as the interval between DNA condensation and anaphase resolution (Figure 4D).

[4] = system: HeLa cells; assay: Flow cytometry (FACS) DNA content / cell cycle profile; format: cell-based, human; conditions: 24 h
Procedure: Adherent HeLa cells were routinely passaged and maintained in D-MEM medium supplemented with 10% Fetal Bovine Serum (FBS), 1% Penicillin/Streptomycin and 2 mM L-Glutamine. The cells were cultured at 37 °C; 5% CO2. hTERT-RPE1 cells were grown in DMEM with 10% fetal bovine serum. HeLa cells constitutively expressing green fluorescent protein-conjugated Histone H2B and mRed fluorescent protein-conjugated α-tubulin were maintained in D-MEM medium supplemented with 10% Fetal Bovine Serum (FBS), 1% Penicillin/Streptomycin, 2 mM L-Glutamine and 0.5 µg/mL Puromycin and cultured at 37 °C; 5% CO2.
After treatment, FACS analysis was performed on a BD FACSCanto™ Flow Cytometer (Cat.No. 335860 BD Biosciences) using FACSDiva Software. Cells were trypsinized, washed wish PBS and fixed overnight in EtOH (-20°C). After washing with PBS, cells were stained with a propidium iodide solution (PI; 15 µg/mL)/ RNase A (30 µg/mL) for 30 min at 37 °C. RNase was added to avoid signals caused by the binding of PI to RNA.
We first examined by flow cytometry the cell cycle profiles of HeLa cells incubated in medium containing increasing concentrations of any of (A) or (C) for 24 h.

[5] = system: hTERT-RPE1 cells; assay: Cilia disassembly assay; format: cell-based; conditions: pretreatment 1-2 µM, serum stimulation after 48 h starvation
Procedure: Cilia assembly and disassembly assays were performed as described in Pugacheva et al., Cell 2007, 129, 1351-1363. […] For analysis of cilia disassembly, cilia were assembled by 48 h starvation in Opti-MEM, and disassembled by incubation in DMEM-10% serum. Cells were fixed after 2 and 4 h. […] To visualize the centrosomes and the cilia, fixed cells were immunostained with anti-γ-tubulin (Sigma GTU88) and anti-acetylated-tubulin (Sigma), and DNA was stained with Hoechst.

## COc1cc2c(Nc3ccc(NC(=O)c4ccccc4)cc3)ncnc2cc1OCCCN1CCOCC1 [ZM1, reference compound]
[1]
  HH3-Ser10 phosphorylation: strongly reduced
[2]
  mitotic phenotype of fixed cells: strong increase of the number of mitotic cells showing chromosome alignment defects in metaphase
[3]
  time spent in mitosis (TIM): 306 min
[3]; 16 h-24 h
  number of cells entering mitosis: decreased by half
[3]; of cells in mitosis
  cells that de-condensed their DNA and went back to interphase without chromosome segregation: 76%
[4]; 2µM, HeLa cells
  % of cells 2<n<4: 2.8%
  % of cells 2n: 1.2%
  % of cells 4n: 51.1%
  % of cells <2n: 3.0%
  % of cells >4n: 43.5%
[4]; ZM1 2 µM, (A) and (C) increasing concentrations
  effect on DNA content / distribution of cells in the cell cycle stages: increased the proportion of cells with 4n and 8n DNA content
[5]
  cilia disassembly: did not have any effect
